In patent US20100112089A1, “PEPTIDE COMPOUND AND USE THEREOF” (Takeda Pharmaceutical Company Limited, priority 2008, published 2010):
Counter-ions that a name gives are not always drawn. Square brackets hold non-standard residues; d marks the D form. Peptide text beside a SMILES is read from it. dPhe(F5) = N[C@H](Cc1c(F)c(F)c(F)c(F)c1F)C(=O)O; dBpa = N[C@H](Cc1ccc(C(=O)c2ccccc2)cc1)C(=O)O; dCha = N[C@H](CC1CCCCC1)C(=O)O

Assays:
[1] = system: patients with locally advanced or metastatic solid tumors; assay: Phase I single agent study of CBP501 (Study A): MTD, DLT, safety, antitumor activity; assay type: in vivo, human
Description: (§1) PK was examined in cycle (cy) 1. MTD is the level below that where 2 of 3-6 patients (pts) have DLT during cy 1-2.
A minimum of 3 patients were to be enrolled at each dose level, and 6 in the event of DLT.
(1) Neutropenia Gr 4 lasting 7 days (5 days in combination study) or Gr 3-4 neutropenia with fever and/or infection, (2) Thrombocytopenia Gr 4 (or grade 3 with bleeding), (3) Treatment-related non-hematological toxicity Gr 3 or 4 (excluding Gr 3 vomiting or diarrhea with sub-optimal prophylactic and curative treatment), and (4) Dosing delay greater than 2 weeks or treatment discontinuation due to treatment-emergent adverse events or related severe laboratory abnormalities.
The MTD was defined as the dose level below that in which DLT was observed during the first 2 cycles in at least 2 out of the 3-6 patients assessable for determination of MTD. The MTD was to be the RD for future studies. Patients evaluable for MTD were those who completed 2 treatment cycles or experienced DLT during the first 2 cycles.
(1) Echocardiogram or MUGA scan (baseline and every 2 cycles), (2) Cardiac enzymes (CPK-MB, CPK-MM, troponin; baseline and prior to each administration), and (3) ECG (before infusion, end of infusion, and 1 hr after infusion end).
(1) Pathologically-confirmed, locally advanced or metastatic solid tumors, refractory to standard therapy or for which conventional therapy is not reliably effective, (2) Presence of measurable disease according to RECIST criteria was not required, but was recommended in additional patients entered at MTD, (3) Age ≧18 years; Eastern Cooperative Oncology Group (ECOG) PS 0-2; Life expectancy >3 months, (4) Adequate organ function (hematological, hepatic, renal, metabolic), and (5) Signed informed consent

[2] = Tissue distribution of 3H-labelled CBP501, NCI-H226 xenograft model; assay type: in vivo, SCID mice; settings: NCI-H226 and MSTO-211H xenograft tumors, Table 15
Procedure: A suspension of NCI-H226 cells was injected subcutaneously into the flanks of six weeks old male severe […] combined immune deficiency (SCID) mice (Charles River Lab., Wilmington, Mass.). The size of tumors was measured three times a week using a caliper. The volumes were calculated using the following formula: volume (cm^3)=[width^2 (mm)×length (mm)]/2000. The relative tumor volume was expressed as the Vt/V0 index, where Vt is the tumor volume on a measured day, and V0 is the volume of the same tumor just before the first treatment. Mean relative tumor sizes with standard error of mean, SEM, were plotted. Body weight was measured three times weekly from the first treatment, and the weight change was expressed as a percentage of the initial weight. Animals were housed in accordance with guidelines from the Association for the Assessment and Accreditation of Laboratory Animal Care International, and the protocols were approved by the institutional animal care committee of CanBas Co., Ltd.
An N-terminal amino acid, p-benzoylphenylalanyl, was ^3H labeled by Daiichi Kagaku Yakuhin Co., Ltd. (Tokyo, Japan).

[3] = Pharmacokinetics of CBP501, single agent study; assay type: in vivo, human; settings: for AUC(0-inf) / Cmax / clearance / half-life: human
Description: as §1
In the single agent study, PK was examined in cycle 1. Samples were collected on Days 1 and 15 before the start of the infusion, then at various time points over 24 hr from the start of the infusion, as described below.

[4] = cardiac monitoring, both studies
[5] = single agent, 9.5 mg/m^2, 3 pts
[6] = single agent, 16.9 mg/m^2, 3 pts
[7] = single agent, 22.5 mg/m^2, 7 pts
[8] = in vivo, 0.9 mg/m2, single agent, 0.9 mg/m^2, Day 1, mean, N 4
[9] = in vivo, 0.9 mg/m2, single agent, 0.9 mg/m^2, Day 15, mean, N 3
[10] = in vivo, 7.2 mg/m2, single agent, 7.2 mg/m^2, Day 1, mean, N 3
[11] = in vivo, 7.2 mg/m2, single agent, 7.2 mg/m^2, Day 15, mean, N 3
[12] = in vivo, 9.57 mg/m2, single agent, 9.57 mg/m^2, Day 1, mean, N 3
[13] = in vivo, 9.57 mg/m2, single agent, 9.57 mg/m^2, Day 15, mean, N 2
[14] = in vivo, 12.73 mg/m2, single agent, 12.73 mg/m^2, Day 1, mean, N 3
[15] = in vivo, 12.73 mg/m2, single agent, 12.73 mg/m^2, Day 15, mean, N 3
[16] = in vivo, 16.93 mg/m2, single agent, 16.93 mg/m^2, Day 1, mean, N 2
[17] = in vivo, 16.93 mg/m2, single agent, 16.93 mg/m^2, Day 15, mean, N 3
[18] = in vivo, 22.5 mg/m2, single agent, 22.5 mg/m^2, Day 1, mean, N 7
[19] = in vivo, 22.5 mg/m2, single agent, 22.5 mg/m^2, Day 15, mean, N 5
[20] = in vivo, […]2, single agent, […]^2, Day 1, mean, N 3
[21] = in vivo, […]2, single agent, […]^2, Day 1, mean, N 4

With `N=C(N)NCCC[C@@H](NC(=O)[C@@H](CCCNC(=N)N)NC(=O)[C@@H](CCC(N)=O)NC(=O)[C@@H](CCCNC(=N)N)NC(=O)[C@@H](CCCNC(=N)N)NC(=O)[C@@H](CCCNC(=N)N)NC(=O)[C@@H](CC1CCCCC1)NC(=O)[C@@H](Cc1c(F)c(F)c(F)c(F)c1F)NC(=O)[C@@H](CO)NC(=O)[C@@H](Cc1c[nH]c2ccccc12)NC(=O)[C@@H](CO)NC(=O)[C@H](N)Cc1ccc(C(=O)c2ccccc2)cc1)C(=O)O` [CBP501, H-(D)p-Benzoylphenylalanyl-(D)seryl-(D)tryptophyl-(D)seryl-(D)pentafluorophenylalanyl-(D)cyclohexylalanyl-(D)arginyl-(D)arginyl-(D)arginyl-(D)glutaminyl-(D)arginyl-(D)arginine acetate salt] (H-[dBpa][dS][dW][dS][dPhe(F5)][dCha][dR][dR][dR][dQ][dR][dR]-OH) the “QTc > 500 ms (patients)” value ([1]; Single agent (16 pts), centralized ECG review) was 0, the “Abdominal pain Gr 1-2” value ([1]; Single-agent (n = 30)) was 7 and the “Abdominal pain Gr 3” value ([1]; Single-agent (n = 30)) was 2. For the same molecule, the “Allergy (includes infusion reaction, flushing, rash, etc.) Gr 1-2” value ([1]; Single-agent (n = 30)) was 18, the “Diarrhea Gr 1-2” value ([1]; Single-agent (n = 30)) was 5 and the “Diarrhea Gr 3” value ([1]; Single-agent (n = 30)) was 1. The “Fatigue Gr 1-2” value ([1]; Single-agent (n = 30)) was 14, the “Fatigue Gr 3” value ([1]; Single-agent (n = 30)) was 1 and the “Headache Gr 1-2” value ([1]; Single-agent (n = 30)) was 3. The “Increased troponin Gr 3” value ([1]; Single-agent (n = 30)) was 1, the “Nausea/Vomiting Gr 1-2” value ([1]; Single-agent (n = 30)) was 5 and the “Neutropenia Gr 1-2” value ([1]; Single-agent (n = 30)) was 3. The “QTc prolongation Gr 1-2” value ([1]; Single-agent (n = 30)) was 10, the “Thrombocytopenia Gr 1-2” value ([1]; Single-agent (n = 30)) was 4 and the “Anemia Gr 1-2” value ([1]; Single-agent (n = 30), 16 with baseline anemia) was 22 (16*). For the same molecule, the “patients with QTc prolongation by >60 msec” value ([1]; both studies, centralized ECG review (16 + 24 patients)) was 4, the “start of allergic reaction into the infusion” value ([1]; both studies, rash, hot flushes, urticaria) was 10 to 60 min and the “pts with QTcB >500 msec” value [1, 4] was 1. For the same molecule, the “pts with QTcB prolongation >60 msec” value [1, 4] was 2, the “time for troponin to return to normal levels” value ([1]; patient at DL 8, single-agent, Gr 3 troponin elevation) was “within one week” and the tolerability ([1]; single agent) was “well tolerated”. The “Patients with allergic reaction Gr1” value ([1]; single agent, 0.9 mg/m^2, 4 pts) was 1, the “Patients with allergic reaction Gr2” value ([1]; single agent, 7.2 mg/m^2, 3 pts) was 3 and the “Patients with allergic reaction Gr1” value [1, 5] was 1. For the same molecule, the “Patients with allergic reaction Gr2” value [1, 5] was 2, the “Patients with allergic reaction Gr1” value [1, 6] was 1 and the “Patients with allergic reaction Gr2” value [1, 6] was 1. For the same molecule, the “Patients with allergic reaction Gr1” value [1, 7] was 3, the “Patients with allergic reaction Gr2” value [1, 7] was 4 and the “pts with Gr 1-2 allergy” value ([1]; single agent, 30 pts treated (43%), interim summary) was 13. For the same molecule, the “Patients with allergic reaction Gr1” value ([1]; single agent, TOTAL, 30 pts) was 7, the “Patients with allergic reaction Gr2” value ([1]; single agent, TOTAL, 30 pts) was 11 and the MTD ([1]; single agent, doses up to 22.5 mg/m^2) was “not reached”. The DLT ([1]; single-agent, dose 22.5 mg/m^2, 7 pts, 11 cycles) was 1, the “concentration of CBP501 in the subcutaneous tumor xenograft” value [2] was 1 to 2 µM and the “inter-patient variability within dose levels, coefficient of variation” value ([3]; both studies, generally in the range) was 20%-40%. It also gave an AUC(0-inf) [3, 8] of 178 ng·h/mL, a Cmax [3, 8] of 121 ng/mL and a clearance [3, 8] of 2.05 mL/min/kg. It also gave a half-life [3, 8] of 42 min, an AUC(0-inf) [3, 9] of 188 ng·h/mL and a Cmax [3, 9] of 138 ng/mL. It also gave a clearance [3, 9] of 1.8 mL/min/kg, a half-life [3, 9] of 36 min and an AUC(0-inf) [3, 10] of 4390 ng·h/mL. It also gave a Cmax [3, 10] of 1920 ng/mL, a clearance [3, 10] of 0.817 mL/min/kg and a half-life [3, 10] of 78 min. It also gave an AUC(0-inf) [3, 11] of 3660 ng·h/mL, a Cmax [3, 11] of 2010 ng/mL and a clearance [3, 11] of 0.933 mL/min/kg. For the same molecule, the half-life [3, 11] was 66 min, the AUC(0-inf) [3, 12] was 6480 ng·h/mL and the Cmax [3, 12] was 2890 ng/mL. It also gave a clearance [3, 12] of 0.633 mL/min/kg, a half-life [3, 12] of 150 min and an AUC(0-inf) [3, 13] of 5140 ng·h/mL. The Cmax [3, 13] was 2410 ng/mL, the clearance [3, 13] was 0.783 mL/min/kg and the half-life [3, 13] was 72 min. For the same molecule, the AUC(0-inf) [3, 14] was 6340 ng·h/mL, the Cmax [3, 14] was 2730 ng/mL and the clearance [3, 14] was 0.983 mL/min/kg. For the same molecule, the half-life [3, 14] was 84 min, the AUC(0-inf) [3, 15] was 7660 ng·h/mL and the Cmax [3, 15] was 3080 ng/mL. The clearance [3, 15] was 0.8 mL/min/kg, the half-life [3, 15] was 144 min and the AUC(0-inf) [3, 16] was 14300 ng·h/mL. The Cmax [3, 16] was 4920 ng/mL, the clearance [3, 16] was 0.617 mL/min/kg and the half-life [3, 16] was 120 min. The AUC(0-inf) [3, 17] was 12600 ng·h/mL, the Cmax [3, 17] was 4640 ng/mL and the clearance [3, 17] was 0.6 mL/min/kg. For the same molecule, the half-life [3, 17] was 174 min, the AUC(0-inf) [3, 18] was 16500 ng·h/mL and the Cmax [3, 18] was 6080 ng/mL. For the same molecule, the clearance [3, 18] was 0.667 mL/min/kg, the half-life [3, 18] was 192 min and the AUC(0-inf) [3, 19] was 20200 ng·h/mL. The Cmax [3, 19] was 7490 ng/mL, the clearance [3, 19] was 0.583 mL/min/kg and the half-life [3, 19] was 240 min. It also gave a clearance [3, 20] of 0.917 mL/min/kg, a half-life [3, 20] of 72 min and a clearance [3, 21] of 0.867 mL/min/kg. The half-life [3, 21] was 102 min, the half-life ([3]; in vivo, […]2, single agent, […]^2, Day 15, mean, N 3) was 96 min and the “differences in PK between day 1 and day 15 or between single-agent and combination administration” value ([3]; in vivo) was “No consistent differences”. The “dose range over which dose-proportionality of Cmax and AUC0-inf was observed” value ([3]; in vivo) was 40 fold, the Cl ([3]; single agent, 0.9 mg/m^2, Day 1, mean, N 4) was 5240 mL/h/m^2 and the Cl ([3]; single agent, 0.9 mg/m^2, Day 15, mean, N 3) was 4908 mL/h/m^2. For the same molecule, the Cl ([3]; single agent, 7.2 mg/m^2, Day 1, mean, N 3) was 1802 mL/h/m^2, the Cl ([3]; single agent, 7.2 mg/m^2, Day 15, mean, N 3) was 2041 mL/h/m^2 and the Cl ([3]; single agent, 9.57 mg/m^2, Day 1, mean, N 3) was 1599 mL/h/m^2. The Cl ([3]; single agent, 9.57 mg/m^2, Day 15, mean, N 2) was 1954 mL/h/m^2, the Cl ([3]; single agent, 12.73 mg/m^2, Day 1, mean, N 3) was 2081 mL/h/m^2 and the Cl ([3]; single agent, 12.73 mg/m^2, Day 15, mean, N 3) was 1677 mL/h/m^2. It also gave a Cl ([3]; single agent, 16.93 mg/m^2, Day 1, mean, N 2) of 1395 mL/h/m^2, a Cl ([3]; single agent, 16.93 mg/m^2, Day 15, mean, N 3) of 1372 mL/h/m^2 and a Cl ([3]; single agent, 22.5 mg/m^2, Day 1, mean, N 7) of 1458 mL/h/m^2. The Cl ([3]; single agent, 22.5 mg/m^2, Day 15, mean, N 5) was 1206 mL/h/m^2, the Cl ([3]; single agent, […]^2, Day 1, mean, N 3) was 2197 mL/h/m^2 and the Cl ([3]; single agent, […]^2, Day 1, mean, N 4) was 2908 mL/h/m^2. For the same molecule, the “dose-proportionality of Cmax and AUC” value ([3]; single agent, days 1 and 15, over the dose range evaluated, acetate salt) was “showed dose-proportionality”.
